Reference: article PMC11145868, “Protein target similarity is positive predictor of in vitro antipathogenic activity: a drug repurposing strategy for Plasmodium falciparum” (Journal of Cheminformatics, 2024)
Where a name gives a salt, the structure may show the parent alone. Read-outs that look alike come from different tables or passages of the source.

Assays:
[1] = test system: P. falciparum Dd2-HLH; test: microbe, parasite or virus in culture; type: cell-based, Plasmodium falciparum
[2] = test system: P. berghei-luciferase sporozoites; test: microbe, parasite or virus in culture; type: cell-based, Plasmodium berghei; conditions: liver-stage parasites, 48 hours in culture, read-out: Liver stage 48h EC50
[3] = test system: P. falciparum Dd2-HLH; test: microbe, parasite or virus in culture; type: cell-based, Plasmodium falciparum; conditions: read-out: Blood stage 72h EC50
[4] = Mammalian cell cytotoxicity assay, HEK293T (CellTiter-Glo, 72 h); conditions: human, HEK293T cells
[5] = Plasmodium falciparum, DD2, 48 h, read-out: Blood stage 48h EC50
[6] = Plasmodium falciparum, DD2, 72 h
[7] = P. falciparum blood-stage parasites, 48 hours in culture, read-out: Blood stage 48h EC50
[8] = P. falciparum blood-stage parasites, 72 hours in culture

Row | Compound | EC50 [1, 5] | EC50 ([2]; Plasmodium berghei, HepG2) | EC50 [3, 6] | CC50 at 72 h [4] | EC50 [1, 7] | EC50 [2] | EC50 [3, 8] | EC50 ([1]; Plasmodium falciparum, DD2, Hec50, 48 h, read-out: Blood stage 48 h EC50) | EC50 ([1]; Plasmodium falciparum, DD2, read-out: EC50 (antiplasmodial, quoted in discussion from Supplementary Table 1))
1 | COc1ccc(C(=O)c2cn(C(C)C)c3ncnc(N)c23)cc1NC(=O)Nc1ccc(Cl)cc1Cl [CE-245677] | 0.619 µM | 3.33 µM | 0.81 µM | > 9.95 µM | – | – | – | – | –
2 | CN(C)Cc1c(C(=O)NCCOc2ccc(C(=O)NO)cc2)oc2ccccc12 [Abexinostat] | 0.051 µM | 1.19 µM | 0.091 µM | 0.376 µM | – | – | – | – | –
3 | CNC(=O)[C@H](Cc1ccccc1)NC(=O)[C@H](CC(C)C)[C@H](CSc1cccs1)C(=O)NO [Batimastat] | 0.095 µM | > 10 µM | 0.165 µM | > 9.95 µM | – | – | – | – | –
4 | CCc1cc2c(cc1N1CCC(N3CCOCC3)CC1)C(C)(C)c1[nH]c3cc(C#N)ccc3c1C2=O [Alectinib Hydrochloride] | 0.907 µM | 0.152 µM | 0.926 µM | 0.797 µM | – | – | – | – | –
5 | CC(C)c1cc(CNc2nc(Nc3cc(C4CC4)[nH]n3)cc(N3CCN(C)CC3)n2)on1 [XL-228] | 0.056 µM | – | 0.621 µM | 0.537 µM | – | – | – | – | –
6 | C/C=C/C[C@@H](C)C(=O)[C@H]1C(=O)N[C@@H](C(C)C)C(=O)N(C)CC(=O)N(C)[C@@H](CC(C)C)C(=O)N[C@@H](C(C)C)C(=O)N(C)[C@@H](CC(C)C)C(=O)N[C@@H](C)C(=O)N[C@H](C)C(=O)N(C)[C@@H](CC(C)C)C(=O)N(C)[C@@H](CC(C)C)C(=O)N(C)[C@@H](C(C)C)C(=O)N1C [Valspodar] | 0.307 µM | 0.003 µM | 0.37 µM | > 9.95 µM | – | – | – | – | –
7 | O=C(NC1CCN(CCCCC2(C(=O)NCC(F)(F)F)c3ccccc3-c3ccccc32)CC1)c1ccccc1-c1ccc(C(F)(F)F)cc1 [Lomitapide] | 0.277 µM | 2.25 µM | 0.82 µM | 0.791 µM | – | – | – | – | –
8 | CCNC(=O)c1noc(-c2cc(C(C)C)c(O)cc2O)c1-c1ccc(CN2CCOCC2)cc1 [Luminespib] | 0.038 µM | 0.029 µM | 0.04 µM | 0.011 µM | – | – | – | – | –
9 | Cc1cc(Nc2nc(C(O)c3ccc(F)cc3)nc3ccccc23)n[nH]1 (centres unmarked) [AC-430] | 1.2 µM | 4.21 µM | 0.924 µM | > 9.95 µM | – | – | – | – | –
10 | CS(=O)(=O)CCNCc1ccc(-c2ccc3ncnc(Nc4ccc(OCc5cccc(F)c5)c(Cl)c4)c3c2)o1 [Lapatinib] | 0.3 µM | 4.21 µM | 0.519 µM | > 9.95 µM | – | – | – | – | –
11 | CO[C@@H]1[C@H](N(C)C(=O)c2ccccc2)C[C@H]2O[C@]1(C)n1c3ccccc3c3c4c(c5c6ccccc6n2c5c31)C(=O)NC4 [Midostaurin] | 0.086 µM | 3.6 µM | – | > 9.95 µM | – | – | – | – | –
12 | Cc1c(-c2ccc(O)cc2)n(Cc2ccc(OCCN3CCCCCC3)cc2)c2ccc(O)cc12 [Bazedoxifene Acetate] | 0.192 µM | 5.56 µM | 0.636 µM | 3.04 µM | – | – | – | – | –
13 | OC(CCN1CCCC1)(c1ccccc1)C1CCCCC1 (centres unmarked) [Procyclidine hydrochloride] | 0.594 µM | > 10 µM | 0.437 µM | > 9.95 µM | – | – | – | – | –
14 | C=C[C@H]1C[N@@]2CC[C@H]1C[C@@H]2[C@@H](O)c1ccnc2ccc(OC)cc12 [Quinidine] | 0.041 µM | > 10 µM | 0.084 µM | > 9.95 µM | – | – | – | – | –
15 | CO[C@@H]1[C@H](O)C[C@@H](O[C@@H]2C[C@H](Oc3cc4cc5c(c(O)c4c(O)c3C)C(=O)[C@@H](O[C@H]3C[C@@H](O[C@H]4C[C@@H](O[C@H]6C[C@](C)(O)[C@@H](OC(C)=O)[C@H](C)O6)[C@H](O)[C@@H](C)O4)[C@H](O)[C@@H](C)O3)[C@H]([C@H](OC)C(=O)[C@@H](O)[C@@H](C)O)C5)O[C@H](C)[C@@H]2OC(C)=O)O[C@@H]1C [Chromomycin A3] | 0.031 µM | 0.03 µM | 0.048 µM | – | – | – | – | – | –
16 | OC1(c2ccc(Cl)c(C(F)(F)F)c2)CCN(CCCC(c2ccc(F)cc2)c2ccc(F)cc2)CC1 [Penfluridol] | 0.218 µM | 3.17 µM | 0.524 µM | 1.9 µM | – | – | – | – | –
17 | O=C(Nc1c[nH]nc1-c1nc2ccc(CN3CCOCC3)cc2[nH]1)NC1CC1 [AT-9283] | 0.129 µM | 0.569 µM | 0.864 µM | – | – | – | – | – | –

Row | Compound | EC50 [1, 5] | EC50 ([2]; Plasmodium berghei, HepG2) | EC50 [3, 6] | CC50 at 72 h [4] | EC50 [1, 7] | EC50 [2] | EC50 [3, 8] | EC50 ([1]; Plasmodium falciparum, DD2, Hec50, 48 h, read-out: Blood stage 48 h EC50) | EC50 ([1]; Plasmodium falciparum, DD2, read-out: EC50 (antiplasmodial, quoted in discussion from Supplementary Table 1))
18 | COc1ccc(CCN2CCC(Nc3nc4ccccc4n3Cc3ccc(F)cc3)CC2)cc1 [Astemizole] | – | – | – | > 9.95 µM | – | – | – | – | –
19 | Oligomycin A | – | – | – | – | 0.057 µM | 0.578 µM | 0.168 µM | – | –
20 | CCC1=C[C@@H]2CN(C1)Cc1c([nH]c3ccccc13)[C@@](C(=O)OC)(c1cc3c(cc1OC)N(C)[C@H]1[C@@](O)(C(=O)OC)[C@H](OC(C)=O)[C@]4(CC)C=CCN5CC[C@]31[C@@H]54)C2 [Vinorelbine] | 0.171 µM | – | 0.809 µM | 2.98 µM | – | – | – | – | –
21 | CC(C)(C)NC[C@H](O)COc1ccccc1C1CCCC1 [Penbutolol] | 0.418 µM | 20 µM | 0.98 µM | > 9.95 µM | – | – | – | – | –
22 | C/C1=C/C[C@@H](/C(C)=C/c2csc(C)n2)OC(=O)C[C@H](O)C(C)(C)C(=O)[C@H](C)[C@@H](O)[C@@H](C)CCC1 [Desoxyepothilone B] | 0.044 µM | 0.986 µM | 0.076 µM | – | – | – | – | – | –
23 | COc1cccc2c1C(=O)c1c(O)c3c(c(O)c1C2=O)C[C@@](O)(C(=O)CO)C[C@@H]3O[C@H]1C[C@H](N)[C@@H](O)[C@H](C)O1 [Epirubicin HCl] | 0.271 µM | 1.48 µM | 0.366 µM | 0.103 µM | – | – | – | – | –
24 | COc1cc2ncnc(Nc3ccc(F)c(Cl)c3)c2cc1NC(=O)/C=C/CN1CCCCC1 [Dacomitinib] | 0.54 µM | 0.596 µM | 0.953 µM | 2.62 µM | – | – | – | – | –
25 | COc1cc2c(Oc3ccc(NC(=O)C4(C(=O)Nc5ccc(F)cc5)CC4)cc3F)ccnc2cc1OCCCN1CCOCC1 [Foretinib] | 0.139 µM | 6.05 µM | 0.859 µM | 2.37 µM | – | – | – | – | –
26 | CC[C@]1(O)C[C@@H]2CN(CCc3c([nH]c4ccccc34)[C@@](C(=O)OC)(c3cc4c(cc3OC)N(C)[C@H]3[C@@](O)(C(=O)OC)[C@H](OC(C)=O)[C@]5(CC)C=CCN6CC[C@]43[C@@H]65)C2)C1 [Vinblastine sulfate] | 0.029 µM | 1.1 µM | 0.024 µM | 0.102 µM | – | – | – | – | –
27 | CC[C@H](NC(=O)[C@H](C)NC)C(=O)N1C[C@@H](O)C[C@H]1Cc1c(-c2[nH]c3cc(F)ccc3c2C[C@@H]2C[C@H](O)CN2C(=O)[C@H](CC)NC(=O)[C@H](C)NC)[nH]c2cc(F)ccc12 [Birin/apant] | 0.19 µM | > 10 µM | 0.603 µM | > 9.95 µM | – | – | – | – | –
28 | CCN(CC)CCN(Cc1ccc(-c2ccc(C(F)(F)F)cc2)cc1)C(=O)Cn1c(SCc2ccc(F)cc2)nc(=O)c2c1CCC2 [Darapladib] | 0.515 µM | 2.88 µM | 0.85 µM | 1.73 µM | – | – | – | – | –
29 | COCCN1CCN(Cc2ccc(-c3n[nH]c4c3C(=O)c3c(NC(=O)NN5CCOCC5)cccc3-4)cc2)CC1 [RGB-286638] | 0.138 µM | 0.087 µM | 0.3 µM | 0.058 µM | – | – | – | – | –
30 | COC(=O)[C@@]12OC[C@]34[C@H]([C@@H](O)[C@@H]1O)[C@@]1(C)CC(=O)C(O)=C(C)[C@@H]1C[C@H]3OC(=O)[C@H](OC(=O)/C=C(\C)C(C)C)[C@@H]24 [Bruceantin, reference compound] | – | – | 0.007 µM | 0.025 µM | – | – | – | 0.005 µM | –
31 | COc1ccc(C[C@H]2NC[C@H](O)[C@H]2OC(C)=O)cc1 [Anisomycin] | – | – | – | – | 0.044 µM | 0.266 µM | 0.061 µM | – | –
32 | Cc1ccc(C(=O)Nc2ccc(CN3CCN(C)CC3)c(C(F)(F)F)c2)cc1C#Cc1cnc2cccnn12 [Pon/atinib] | 0.294 µM | 0.241 µM | 0.555 µM | – | – | – | – | – | –
33 | COC(=O)C[C@](O)(CCC(C)(C)O)C(=O)O[C@@H]1C(OC)=C[C@]23CCCN2CCc2cc4c(cc2[C@H]13)OCO4 [harringtonine, reference compound] | 0.024 µM | 0.029 µM | 0.043 µM | – | – | – | – | – | 0.0061 µM
